Holding throughout (type): cell-based
Test [1] has as its system Burkholderia cepacia GI LMG1222. Nature of the test: Detection of pyroglutamyl peptidase activity (example 10), colony coloration. The note with it: between 24 and 48 h of incubation; strain LMG1222.
The subject of a further test is Pseudomonas fluorescens. Described as above. The conditions noted are these: between 24 and 48 h of incubation.
In test [2] the test system is Pseudomonas fragilis NCIMB 8987. The test is described as above. The note with it: between 24 and 48 h of incubation; strain NCIMB 8987.
The test system of test [3] is Acinetobacter calcoaceticus. Described as above. The conditions noted are these: between 24 and 48 h of incubation.
The subject of test [4] is Acinetobacter baumannii ATCC 19606. Described as above. The conditions noted are these: between 24 and 48 h of incubation; strain ATCC 19606.
A further test concerns Ralstonia basilensis. The note with it: between 24 and 48 h of incubation.
A further test deals with Pseudomonas maltophilia. Description: Detection of pyroglutamyl peptidase activity (example 10), colony coloration. The note with it: between 24 and 48 h of incubation.
The next test has as its system Pseudomonas aeruginosa. Described as above. The conditions noted are these: between 24 and 48 h of incubation, no accession No.
The subject of test [5] is Burkholderia cepacia GIII LMG 18832. Described as above. The conditions noted are these: between 24 and 48 h of incubation; strain LMG 18832.
Another test has as its system Ralstonia taiwanensis. The conditions noted are these: between 24 and 48 h of incubation.
Setting [6] is: first P. aeruginosa strain of table 3 (r6).
The mark [7] stands for this setting: second P. aeruginosa strain of table 3 (r8).
The mark [8] stands for this setting: third P. aeruginosa strain of table 3 (r10).

Our source for the coloration values is patent US7932050B2, “Enzymatic substrates derived from phenoxazinone and their use as developers in detection of microorganisms with peptidase activity” (bioMerieux, priority 2004, dated 2011).

`CCCCCc1c2nc3ccc(NC(=O)[C@@H]4CCC(=O)N4)cc3oc-2cc(=O)c1Cl` [Chlorinated pyroglutamyl compound, 7-N-(L-pyroglutamyl)amino-2-chloro-1-pentylphenoxazin-3-one]: the coloration entry in test [1] is “yellow”; with Pseudomonas fluorescens, “colorless”; in [2] it was “colorless”; in test [3], “colorless”; in [4], “colorless”; in the test with Ralstonia basilensis, “colorless”. Besides, the coloration result in the test on Pseudomonas maltophilia is reported as “colorless”; with Pseudomonas aeruginosa (setting [6]), “purple”; in the test with Pseudomonas aeruginosa (setting [7]), “purple”; with Pseudomonas aeruginosa (setting [8]) it was “purple”; in [5] it was “yellow”; in the test on Ralstonia taiwanensis, “colorless”.

Turning to `CCCCCc1cc(=O)cc2oc3cc(NC(=O)[C@@H]4CCC(=O)N4)ccc3nc1-2` [Nonchlorinated pyroglutamyl compound, 7-N-(L-pyroglutamyl)amino-1-pentylphenoxazin-3-one], the coloration entry is recorded as “yellow” in test [1]; “colorless” in the test on Pseudomonas fluorescens; “colorless” in test [2]; “colorless” in [3]; “colorless” in [4]; “colorless” with Ralstonia basilensis. In addition, the coloration result in the test on Pseudomonas maltophilia is “colorless”; with Pseudomonas aeruginosa (setting [6]), “purple”; in the test on Pseudomonas aeruginosa (setting [7]), “purple”; in the test with Pseudomonas aeruginosa (setting [8]), “purple”; in test [5] it was “yellow”; with Ralstonia taiwanensis, “colorless”.
